According to US7786141B2 (Vertex Pharmaceuticals Incorporated, priority 2004, dated 2010):

Columns and labels:
[1] = biological target: T1, M1 muscarinic receptor (Homo sapiens, UniProt P11229); test: Functional mobilization of intracellular calcium (FLIPR) in M1-CHO cells; type: cell-based; conditions: Table 4; for Emax: 100% efficacy is the maximum response obtained with the Carbachol control; for M1 Activity: modulating M1 receptor
T1 construct: expressed in transfected cells; host or cells: CHO (M1-CHO)
T1 sequence (P11229 1-460): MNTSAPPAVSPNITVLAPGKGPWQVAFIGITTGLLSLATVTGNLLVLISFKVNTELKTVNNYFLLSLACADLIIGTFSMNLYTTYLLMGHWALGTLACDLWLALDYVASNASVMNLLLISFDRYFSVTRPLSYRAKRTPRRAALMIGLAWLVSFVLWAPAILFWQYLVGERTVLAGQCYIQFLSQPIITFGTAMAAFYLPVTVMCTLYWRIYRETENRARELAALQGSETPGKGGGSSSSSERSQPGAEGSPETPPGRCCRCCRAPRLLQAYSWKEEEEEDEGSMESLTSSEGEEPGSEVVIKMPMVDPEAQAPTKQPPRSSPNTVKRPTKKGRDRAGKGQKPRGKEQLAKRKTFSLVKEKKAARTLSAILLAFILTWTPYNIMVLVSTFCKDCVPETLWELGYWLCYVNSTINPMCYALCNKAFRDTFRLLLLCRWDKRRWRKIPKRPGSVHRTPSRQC
In short: (§1)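 Measured via Fluo-3 fluorescence on a FLIPR, CHO cells with either muscarinic subtype received compound in 0.5% DMSO. Antagonism was assessed after 15 min pre-incubation followed by carbachol at each subtype's EC80; agonism from compound addition alone.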

[2] = biological target: T2, M4 muscarinic receptor (Homo sapiens, UniProt P08173); test: Functional mobilization of intracellular calcium (FLIPR) in M4-CHO cells; type: cell-based; conditions: Table 4; for Emax: 100% efficacy is the maximum response obtained with the Carbachol control; for M4 Activity: modulating M4 receptor
T2 construct: expressed in transfected cells; host or cells: CHO (M4-CHO)
T2 sequence (P08173 1-479): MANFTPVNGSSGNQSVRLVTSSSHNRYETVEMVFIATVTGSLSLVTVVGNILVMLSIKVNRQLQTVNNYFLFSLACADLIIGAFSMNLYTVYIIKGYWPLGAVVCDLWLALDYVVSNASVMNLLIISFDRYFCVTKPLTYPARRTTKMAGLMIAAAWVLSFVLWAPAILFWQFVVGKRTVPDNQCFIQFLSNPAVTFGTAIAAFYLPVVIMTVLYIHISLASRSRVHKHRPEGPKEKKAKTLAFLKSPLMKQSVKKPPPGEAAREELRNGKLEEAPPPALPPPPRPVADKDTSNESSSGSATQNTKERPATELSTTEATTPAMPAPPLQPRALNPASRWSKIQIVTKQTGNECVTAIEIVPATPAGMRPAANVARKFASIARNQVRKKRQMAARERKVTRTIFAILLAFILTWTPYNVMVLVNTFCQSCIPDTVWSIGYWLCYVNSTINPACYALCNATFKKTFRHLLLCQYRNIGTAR
In short: as §1

SMILES | Emax [1] [%] | M1 Activity [1] | Emax [2] [%] | M4 Activity [2]
CC(=O)N[C@H]1CCC2(CCN(C[C@@H]3C[C@H]4C=C[C@H]3C4)CC2)c2ccccc21 [compound 447] | 25 to 100 | xxx (activity was measured to be less than 2.0 μM) | 25 to 100 | xxx (activity was measured to be less than 2.0 μM)
O=C(N[C@H]1CC2(CCN(CC3CCCCC3)CC2)c2ccccc21)C1CCCC1 [compound 448] | < 25 | x (activity was measured to be greater than 5.0 μM) | < 25 | xxx (activity was measured to be less than 2.0 μM)
C1=CC2CC1CC2CN1CCC2(CCCc3ccccc32)CC1 (stereo not drawn) [compound 449] | 25 to 100 | xx (activity was measured to be between 2.0 μM and 5.0 μM) | 25 to 100 | xxx (activity was measured to be less than 2.0 μM)
CCOC(=O)N1CCC(N2CCC3(CC2)CN(C(C)=O)c2cccc(C)c23)CC1 [compound 450] | 25 to 100 | xxx (activity was measured to be less than 2.0 μM) | < 25 | x (activity was measured to be greater than 5.0 μM)
Cc1nsc(N2CC3(CCN(C4CC5CCC(C4)N5c4nc(C)ns4)CC3)c3ccccc32)n1 (stereo not drawn) [compound 451] | 25 to 100 | xxx (activity was measured to be less than 2.0 μM) | 25 to 100 | xxx (activity was measured to be less than 2.0 μM)
CC(=O)N[C@H]1CCC2(CCN(CCCC3CCCCC3)CC2)c2ccccc21 [compound 452] | 25 to 100 | xxx (activity was measured to be less than 2.0 μM) | < 25 | x (activity was measured to be greater than 5.0 μM)
C#CCOC(=O)N1CCC(N2CCC3(CC2)CN(C(C)=O)c2cccc(C)c23)CC1 [compound 453] | 25 to 100 | xxx (activity was measured to be less than 2.0 μM) | < 25 | x (activity was measured to be greater than 5.0 μM)
CCC(=O)CCN1CCC(N2CCC3(CC2)CN(C(C)=O)c2ccc(F)cc23)CC1 [compound 454] | < 25 | x (activity was measured to be greater than 5.0 μM) | < 25 | x (activity was measured to be greater than 5.0 μM)
CCC#CCOC(=O)N1CC[C@H](CN2CCC3(CC2)CN(C(C)=O)c2cccc(C)c23)C1 [compound 455] | 25 to 100 | xxx (activity was measured to be less than 2.0 μM) | 25 to 100 | xxx (activity was measured to be less than 2.0 μM)
CCCC#CCOC(=O)N1CCC(N2CCC3(CC2)CN(C(=O)N(C)C)c2ccc(F)cc23)CC1 [compound 456] | 25 to 100 | xxx (activity was measured to be less than 2.0 μM) | 25 to 100 | xxx (activity was measured to be less than 2.0 μM)
CN(C)C(=O)N1CC2(CCN(C3CCN(c4ccncc4)CC3)CC2)c2cc(F)ccc21 [compound 458] | < 25 | x (activity was measured to be greater than 5.0 μM) | < 25 | x (activity was measured to be greater than 5.0 μM)
COCCOC(=O)N1CC[C@@H](CN2CCC3(CC2)CN(C(C)=O)c2ccccc23)C1 [compound 459] | 25 to 100 | x (activity was measured to be greater than 5.0 μM) | < 25 | xx (activity was measured to be between 2.0 μM and 5.0 μM)
COCCN1CC2(CCN(C3CCN(C(=O)OCCF)CC3)CC2)c2cc(F)ccc21 [compound 460] | 25 to 100 | xxx (activity was measured to be less than 2.0 μM) | 25 to 100 | xxx (activity was measured to be less than 2.0 μM)
CC(=O)N1CC2(CCN(C3CCN(c4cncc(-c5ccccc5F)n4)CC3)CC2)c2ccccc21 [compound 461] | 25 to 100 | xx (activity was measured to be between 2.0 μM and 5.0 μM) | < 25 | x (activity was measured to be greater than 5.0 μM)
CC(=O)CN1CC2(CCN(C3CC4CCC(C4)C3)CC2)c2cc(F)ccc21 (stereo not drawn) [compound 462] | 25 to 100 | xxx (activity was measured to be less than 2.0 μM) | 25 to 100 | xxx (activity was measured to be less than 2.0 μM)
C[C@@H](O)CC(=O)N1CCC(N2CCC3(CC2)CN(C(=O)N(C)C)c2ccc(F)cc23)CC1 [compound 463] | 25 to 100 | x (activity was measured to be greater than 5.0 μM) | < 25 | x (activity was measured to be greater than 5.0 μM)
CCC(=O)N1CCC(N2CCC3(CC2)CN(C(=O)N(C)C)c2ccc(F)cc23)CC1 [compound 464] | 25 to 100 | xx (activity was measured to be between 2.0 μM and 5.0 μM) | 25 to 100 | xx (activity was measured to be between 2.0 μM and 5.0 μM)
CCOC(=O)N1C2CCC1CC(N1CCC3(CC1)CN(C(C)=O)c1ccc(OC(F)(F)F)cc13)C2 (stereo not drawn) [compound 466] | 25 to 100 | xxx (activity was measured to be less than 2.0 μM) | 25 to 100 | xxx (activity was measured to be less than 2.0 μM)
CCOC(=O)N1CCC(N2CCC3(CC2)CN(C(C)=O)c2c(-c4cccc(OC)c4)cccc23)CC1 [compound 467] | 25 to 100 | xx (activity was measured to be between 2.0 μM and 5.0 μM) | 25 to 100 | xx (activity was measured to be between 2.0 μM and 5.0 μM)
CN(C)C(=O)N[C@H]1CCC2(CCN(C3CC4CCC(C4)C3)CC2)c2ccccc21 (stereo partly drawn) [compound 468] | 25 to 100 | xx (activity was measured to be between 2.0 μM and 5.0 μM) | 25 to 100 | xxx (activity was measured to be less than 2.0 μM)
CCCN1CC2(CCN(C3CCN(C(=O)OCC)CC3)CC2)c2cc(F)ccc21 [compound 469] | 25 to 100 | xxx (activity was measured to be less than 2.0 μM) | 25 to 100 | xxx (activity was measured to be less than 2.0 μM)
Cc1ccc2c(c1)C(=O)CC21CCN(CC2C[C@H]3CC[C@H]2C3)CC1 (stereo partly drawn) [compound 470] | 25 to 100 | xx (activity was measured to be between 2.0 μM and 5.0 μM) | 25 to 100 | xx (activity was measured to be between 2.0 μM and 5.0 μM)
CC(=O)N1CC2(CCN(C3CCN(c4nc(C)cs4)CC3)CC2)c2ccccc21 [compound 471] | 25 to 100 | xx (activity was measured to be between 2.0 μM and 5.0 μM) | 25 to 100 | xx (activity was measured to be between 2.0 μM and 5.0 μM)
CCOC(=O)N1CCC(N2CCC3(CC2)CN(C2CCC(=O)CC2)c2ccccc23)CC1 [compound 472] | > 100 | xxx (activity was measured to be less than 2.0 μM) | 25 to 100 | xxx (activity was measured to be less than 2.0 μM)
